The record followed here is patent publication US5840917A, “Phosphorylamides, their preparation and use” (Takeda Chemical Industries, Ltd., priority 1995, dated 1998).

What is called IC50 is the point on the concentration scale where inhibition reaches its midpoint. The low end stands for higher potency, the high end for lower potency.

The assay deals with T1, Helicobacter pylori-derived urease (Helicobacter pylori, UniProt P69996).
T1 construct: an urease solution prepared from Helicobacter pylori; endogenous in cells
T1 sequence (P69996 whole entry, looked up): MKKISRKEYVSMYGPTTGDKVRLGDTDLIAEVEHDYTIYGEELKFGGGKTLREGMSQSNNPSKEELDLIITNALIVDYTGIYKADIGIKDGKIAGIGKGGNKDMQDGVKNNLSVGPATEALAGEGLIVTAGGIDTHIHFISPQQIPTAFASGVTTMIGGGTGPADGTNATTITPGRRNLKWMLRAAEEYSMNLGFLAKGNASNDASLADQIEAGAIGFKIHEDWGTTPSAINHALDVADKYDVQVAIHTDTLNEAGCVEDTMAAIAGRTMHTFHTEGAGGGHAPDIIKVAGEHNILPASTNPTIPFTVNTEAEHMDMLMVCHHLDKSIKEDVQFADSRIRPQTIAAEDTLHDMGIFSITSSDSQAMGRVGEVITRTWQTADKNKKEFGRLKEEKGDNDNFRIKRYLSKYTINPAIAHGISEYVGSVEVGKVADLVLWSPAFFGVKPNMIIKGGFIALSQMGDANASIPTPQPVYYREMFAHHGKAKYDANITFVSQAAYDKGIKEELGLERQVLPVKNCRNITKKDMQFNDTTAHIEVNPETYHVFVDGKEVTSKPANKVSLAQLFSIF
As to the kind of experiment: Screening of urease inhibitors (ammonia yield from urea). In kind it is biochemical. Here is the method:
Screening of Urease Inhibitors
One hundred (100) μl of 100 mM Bis-Tris buffer (pH 6.5) and 60 μl of an urease solution prepared from Helicobacter pylori were added to 20 μl of a test drug dissolved in 0.1% dimethylformamide solution. The mixture was incubated at room temperature for 30 minutes, and then 20 μl of 100 mM urea was added. The mixture was kept at room temperature for 10 minutes, and then the yielded ammonia in the incubation mixture was measured using a commercial test kit (Ammonia Test Wako®; Wako Pure Chemical). The percent inhibition against the yield of ammonia in the solvent addition group was calculated to obtain the IC50 value.
Regarding `NP(N)(=O)NC(=O)c1cccs1` [Example 1, N-(Diaminophosphinyl)-2-thiophenecarboxamide], inhibition was half-maximal at 1.2 nM (IC50).
`Cc1ccsc1C(=O)NP(N)(N)=O` [Example 4, N-(Diaminophosphinyl)-3-methyl-2-thiophenecarboxamide] returned an IC50 of 6.8 nM.
The compound `NP(N)(=O)NC(=O)c1ccc(Br)s1` [Example 6, N-(Diaminophosphinyl)-5-bromo-2-thiophenecarboxamide] yielded an IC50 of 3.5 nM.
Regarding `NP(N)(=O)NC(=O)c1cc(Br)c(Br)s1` [Example 7, N-(Diaminophosphinyl)-4,5-dibromo-2-thiophenecarboxamide], the IC50 amounted to 4.3 nM.
The figure for `NP(N)(=O)NC(=O)c1cc(Br)cs1` [Example 8, N-(Diaminophosphinyl)-4-bromo-thiophenecarboxamide] is 4.3 nM; for `NP(N)(=O)NC(=O)c1ccc([N+](=O)[O-])s1` [Example 10, N-(Diaminophosphinyl)-5-nitro-thiophenecarboxamide] it is 3.6 nM.
As for `NP(N)(=O)NC(=O)c1ccc(C(F)F)s1` [Example 13, N-(Diaminophosphinyl)-5-difluoromethyl-2-thiophenecarboxamide], the IC50 turned out to be 5.2 nM.
In the case of `NP(N)(=O)NC(=O)c1sccc1Cl` [Example 14, N-(Diaminophosphinyl)-3-chloro-2-thiophenecarboxamide], the half-inhibitory concentration (IC50) was 1.1 nM.
`NP(N)(=O)NC(=O)c1sccc1Br` [Example 16, N-(Diaminophosphinyl)-3-bromo-2-thiophenecarboxamide]: the IC50 stood at 0.8 nM.
In turn, `CS(=O)(=O)c1ccc(C(=O)NP(N)(N)=O)s1` [Example 18, N-(Diaminophosphinyl)-5-methanesulfonyl-2-thiophenecarboxamide] gave an IC50 of 11 nM.
With `NP(N)(=O)NC(=O)c1ccsc1C(F)F` [Example 20, N-(Diaminophosphinyl)-2-difluoromethyl-3-thiophenecarboxamide], 2.5 nM corresponded to half-maximal inhibition (IC50).
With `NP(N)(=O)NC(=O)c1csc([N+](=O)[O-])c1` [Example 21, N-(Diaminophosphinyl)-5-nitro-3-thiophenecarboxamide], the IC50 was 4.3 nM.
Consider `COc1ccc(C(=O)NP(N)(N)=O)s1` [Example 22, N-(Diaminophosphinyl)-5-methoxy-2-thiophenecarboxamide], for which 12 nM corresponded to half-maximal inhibition (IC50).
For `COc1csc(C(=O)NP(N)(N)=O)c1` [Example 24, N-(Diaminophosphinyl)-4-methoxy-2-thiophenecarboxamide], inhibition was half-maximal at 9.1 nM (IC50).
Under `CCc1ccsc1C(=O)NP(N)(N)=O` [Example 27, N-(Diaminophosphinyl)-3-ethyl-2-thiophenecarboxamide] stands 4.1 nM; under `Cc1cc(C(=O)NP(N)(N)=O)sc1Br` [Example 29, N-(Diaminophosphinyl)-5-bromo-4-methyl-2-thiophenecarboxamide], 8.1 nM; under `NP(N)(=O)NC(=O)c1csc(C(F)F)c1` [Example 31, N-(Diaminophosphinyl)-5-difluoromethyl-3-thiophenecarboxamide], 7.1 nM.
Compound `Cc1sc(Cl)cc1C(=O)NP(N)(N)=O` [Example 33, N-(Diaminophosphinyl)-5-chloro-2-methyl-3-thiophenecarboxamide] showed an IC50 of 1.9 nM.
The compound `Cc1sc(C(=O)NP(N)(N)=O)cc1Cl` [Example 34, N-(Diaminophosphinyl)-4-chloro-5-methyl-2-thiophenecarboxamide] returned an IC50 of 12 nM.
Under `Cc1cc(C(=O)NP(N)(N)=O)sc1Cl` [Example 35, N-(Diaminophosphinyl)-5-chloro-4-methyl-2-thiophenecarboxamide] stands 11 nM; under `NP(N)(=O)NC(=O)c1cc(Cl)c(Cl)s1` [Example 36, N-(Diaminophosphinyl)-4,5-dichloro-2-thiophenecarboxamide], 7.4 nM; under `NP(N)(=O)NC(=O)c1cscc1Br` [Example 37, N-(Diaminophosphinyl)-4-bromo-3-thiophenecarboxamide], 1.8 nM.
Under `NP(N)(=O)NC(=O)c1ccsc1Cl` [Example 38, N-(Diaminophosphinyl)-2-chloro-3-thiophenecarboxamide] stands 1.7 nM.
Turning to `NP(N)(=O)NC(=O)c1ccc(Br)o1` [Example 39, N-(Diaminophosphinyl)-5-bromo-2-furancarboxamide], the midpoint of inhibition, the IC50, lay at 2.2 nM.
In turn, `NP(N)(=O)NC(=O)c1ccc(Cl)o1` [Example 42, N-(Diaminophosphinyl)-5-chloro-2-furancarboxamide] came in with an IC50 of 2.3 nM.
Under `Cc1ccc(C(=O)NP(N)(N)=O)o1` [Example 43, N-(Diaminophosphinyl)-5-methyl-2-furancarboxamide] stands 6.2 nM; under `NP(N)(=O)NC(=O)c1ccc(C(F)F)o1` [Example 47, N-(Diaminophosphinyl)-5-difluoromethyl-2-furancarboxamide], 1.9 nM.
Consider `Cc1cc(C(=O)NP(N)(N)=O)c(C(F)(F)F)o1` [Example 48, N-(Diaminophosphinyl)-2-trifluoromethyl-5-methyl-3-furancarboxamide], for which inhibition was half-maximal at 8.3 nM (IC50).
Take `Cc1cc(C(=O)NP(N)(N)=O)c(C)o1` [Example 49]: the IC50 came to 27 nM.
Compound `Cc1oc(Cl)cc1C(=O)NP(N)(N)=O` [Example 50, N-(Diaminophosphinyl)-5-chloro-2-methyl-3-furancarboxamide] displayed an IC50 of 7.5 nM.
Compound `CCc1occc1C(=O)NP(N)(N)=O` [Example 51, N-(Diaminophosphinyl)-2-ethyl-3-furancarboxamide] registered an IC50 of 22 nM.
The figure for `NP(N)(=O)NC(=O)COc1ccc([N+](=O)[O-])cc1` [Example 52, N-(Diaminophosphinyl)-4-nitrophenoxyacetamide] is 12 nM; for `COc1ccc(OCC(=O)NP(N)(N)=O)cc1` [Example 53, N-(Diaminophosphinyl)-4-methoxyphenoxyacetamide] it is 7.9 nM.
`NP(N)(=O)NC(=O)COc1ccc(Cl)cc1` [Example 55, N-(Diaminophosphinyl)-4-chlorophenoxyacetamide] had an IC50 of 3 nM.
The compound `Cc1cc(C)c(C)c(OCC(=O)NP(N)(N)=O)c1` [Example 56, N-(Diaminophosphinyl)-2,3,5-trimethylphenoxyacetamide] registered an IC50 of 41 nM.
`N#Cc1ccc(OCC(=O)NP(N)(N)=O)cc1` [Example 57, N-(Diaminophosphinyl)-4-cyanophenoxyacetamide] returned an IC50 of 7.5 nM.
Consider `NP(N)(=O)NC(=O)COc1cccc(Cl)c1` [Example 58, N-(Diaminophosphinyl)-3-chlorophenoxyacetamide], for which the concentration for half-maximal inhibition (IC50) is 3 nM.
Under `NP(N)(=O)NC(=O)COc1ccccc1Cl` [Example 59, N-(Diaminophosphinyl)-2-chlorophenoxyacetamide] stands 5.4 nM; under `NP(N)(=O)NC(=O)COc1cccc(F)c1` [Example 60, N-(Diaminophosphinyl)-3-fluorophenoxyacetamide], 3.6 nM.
With `NP(N)(=O)NC(=O)CSc1ccccc1` [Example 61, N-(Diaminophosphinyl)-phenylthioacetamide], 2.8 nM corresponded to half-maximal inhibition (IC50).
In turn, `NP(N)(=O)NC(=O)CSc1ccc(F)cc1` [Example 62, N-(Diaminophosphinyl)-4-fluorophenylthioacetamide] returned an IC50 of 2.8 nM.
